Among the data in patent publication US9808003B2, “Herbicidally active 2-(substituted-phenyl)-cyclopentane-1,3-dione compounds and derivatives thereof” (Syngenta Limited, priority 2013, dated 2017) are pest or weed control values, retold here.

Test in all cases: Test 1A glasshouse assay, post-emergence herbicidal activity
Type in all cases: in vivo

For assay [1], the system named is Echinochloa crus-galli (ECHCG). Conditions: Echinochloa crus-galli, 312 h, application rate 250 g/ha, 13 days after application, visual (100%=total damage; 0%=no damage), read-out: Post-emergence Herbicidal Activity (% Phytotoxicity) ECHCG. How it is done:
(§1) Seeds of a variety of test species were sown in standard soil in pots. After cultivation for one day (pre-emergence) or after 8 days cultivation (post-emergence) under controlled conditions in a glasshouse (at 24/16° C., day/night; 14 hours light; 65% humidity), the plants were sprayed with an aqueous spray solution derived from the formulation of the technical active ingredient in acetone/water (50:50) solution containing 0.5% Tween 20 (polyoxyethelyene sorbitan monolaurate, CAS RN 9005-64-5). The test plants were then grown under controlled conditions in a glasshouse (at 24/16° C., day/night; 14 hours light; 65% humidity) and watered twice daily. 13 days after application of the test herbicide, for pre- and post-emergence, the test was evaluated visually for percentage phytotoxicity to the plant (where 100%=total damage to plant; 0%=no damage to plant).
(§2) Lolium perenne (LOLPE), Alopecurus myosuroides (ALOMY), Echinochloa crus-galli (ECHCG), and Avena fatua (AVEFA); these are all grassy monocotyledonous weeds.

Assay [2] has as its system Avena fatua (AVEFA). Conditions: Avena fatua, 312 h, application rate 250 g/ha, 13 days after application, visual (100%=total damage; 0%=no damage), read-out: Post-emergence Herbicidal Activity (% Phytotoxicity) AVEFA. The protocol:
as §1, §2

Assay [3] relates to Lolium perenne (LOLPE). The following applies: Lolium perenne, 312 h, application rate 250 g/ha, 13 days after application, visual (100%=total damage; 0%=no damage), read-out: Post-emergence Herbicidal Activity (% Phytotoxicity) LOLPE. The protocol: as §1, §2
Assay [4] relates to Alopecurus myosuroides (ALOMY). Conditions: Alopecurus myosuroides, 312 h, application rate 250 g/ha, 13 days after application, visual (100%=total damage; 0%=no damage), read-out: Post-emergence Herbicidal Activity (% Phytotoxicity) ALOMY. How it is done: as §1, §2

Each structure is given as a SMILES string.

Consider `Cc1cc(-n2cc(Cl)cn2)cc(C)c1C1C(=O)CC(CCNC(=O)c2cccc(C(F)(F)F)n2)C1=O` (stereo not drawn) [Compound A139], for which the pest or weed control at 250 g/ha in assay [1] worked out at 90%; in assay [2], 90%; in assay [3], 100%; in assay [4], 90%.

Take `Cc1cc(Cl)c(C2C(=O)CC(CCNC(=O)c3ccccn3)C2=O)c(Cl)c1` (stereo not drawn) [Compound A105]: the pest or weed control at 250 g/ha in assay [1] is 100%; in assay [2], 90%; in assay [3], 90%; in assay [4] it was 40%.

`Cc1cc(C)c(C2C(=O)CC(CCNC(=O)c3cc(C)nn3C)C2=O)c(C)c1` (stereo not drawn) [Compound A72]: the pest or weed control at 250 g/ha in assay [1] is 70%; in assay [2], 90%; in assay [3] it was 90%; in assay [4], 90%.

As for `Cc1cc(C)c(C2C(=O)CC(CCNC(=O)c3cccn3C)C2=O)c(C)c1` (stereo not drawn) [Compound A58], the pest or weed control at 250 g/ha amounted to 50% in assay [1], 30% in assay [2], 80% in assay [3] and 50% in assay [4].

Regarding `Cc1cc(C)c(C2C(=O)CC(CCNC(=O)c3ccc(F)nc3)C2=O)c(C)c1` (stereo not drawn) [Compound A158], the pest or weed control at 250 g/ha in assay [1] is 70%; in assay [2] it was 90%; in assay [3] it was 80%; in assay [4], 80%.

Turning to `Cc1cc(C)c(C2C(=O)CC(CCNC(=O)C3CCC3)C2=O)c(C)c1` (stereo not drawn) [Compound A8], the pest or weed control at 250 g/ha was found to be 80% in assay [1], 70% in assay [2], 90% in assay [3] and 60% in assay [4].

For `C#CCOc1cc(C)c(C2C(=O)CC(CCNC(=O)c3ccccn3)C2=O)c(C)c1` (stereo not drawn) [Compound A141A], the pest or weed control at 250 g/ha in assay [1] turned out to be 80%; in assay [2], 80%; in assay [3], 70%; in assay [4] it was 80%.

With `CCOc1cccc(C(=O)NCCC2CC(=O)C(c3c(C)cc(C)cc3C)C2=O)n1` (stereo not drawn) [Compound A92], the pest or weed control at 250 g/ha in assay [1] came out at 70%; in assay [2] it was 80%; in assay [3], 70%; in assay [4], 80%.

`CCCCS(=O)(=O)OC1=C(c2c(C)cc(-n3cc(Cl)cn3)cc2C)C(=O)C(CCNC(=O)c2ccccn2)C1` (stereo not drawn) [Compound P15]: the pest or weed control at 250 g/ha in assay [1], in assay [2], in assay [3] and in assay [4] was 100% each time.

For `Cc1cc(Br)cc(C)c1C1C(=O)CC(CCNC(=O)c2ccccn2)C1=O` (stereo not drawn) [Compound A125], the pest or weed control at 250 g/ha in assay [1], in assay [2], in assay [3] and in assay [4] was 100% throughout.

For the molecule `Cc1cc(C)c(C2C(=O)CC(CCNC(=O)c3cccc(N)n3)C2=O)c(C)c1` (stereo not drawn) [Compound A66], the pest or weed control at 250 g/ha worked out at 70% in assay [1], 40% in assay [2], 60% in assay [3] and 80% in assay [4].

As for `Cc1cc(C)c(C2C(=O)CC(CCNC(=O)c3sc(C)nc3C)C2=O)c(C)c1` (stereo not drawn) [Compound A79], the pest or weed control at 250 g/ha in assay [1] was 70%; in assay [2] it was 80%; in assay [3], 70%; in assay [4], 80%.

Take `Cc1cc(C)c(C2C(=O)CC(CCNC(=O)c3c(Cl)c(C(F)(F)F)nn3C)C2=O)c(C)c1` (stereo not drawn) [Compound A161]: the pest or weed control at 250 g/ha stood at 100% in assay [1], 100% in assay [2], 100% in assay [3] and 90% in assay [4].

As to `Cc1cc(C)c(C2C(=O)CC(CCNC(=O)c3cccc(C(F)(F)F)n3)C2=O)c(C)c1` (stereo not drawn) [Compound A94], the pest or weed control at 250 g/ha in assay [1] amounted to 90%; in assay [2] it was 100%; in assay [3], 80%; in assay [4], 90%.

`Cc1cc(-c2cc(Cl)cc(Cl)c2)cc(C)c1C1C(=O)CC(CCNC(=O)c2ccccn2)C1=O` (stereo not drawn) [Compound A203]: the pest or weed control at 250 g/ha turned out to be 100% in assay [1], 100% in assay [2], 80% in assay [3] and 80% in assay [4].

With `Cc1cc(C)c(C2C(=O)CC(CCNC(=O)c3ccc(C)nc3Cl)C2=O)c(C)c1` (stereo not drawn) [Compound A167], the pest or weed control at 250 g/ha in assay [1] turned out to be 90%; in assay [2], 30%; in assay [3], 70%; in assay [4], 60%.

Turning to `Cc1cc(C)c(C2C(=O)CC(CCNC(=O)c3ccsc3)C2=O)c(C)c1` (stereo not drawn) [Compound A4], the pest or weed control at 250 g/ha in assay [1] was determined as 100%; in assay [2] it was 60%; in assay [3] it was 80%; in assay [4] it was 70%.

With `CCCCS(=O)(=O)OC1=C(c2c(C)cc(C)cc2C)C(=O)C(CCNC(=O)c2ccc(Br)cn2)C1` (stereo not drawn) [Compound P18], the pest or weed control at 250 g/ha is 100% in assay [1], 90% in assay [2], 100% in assay [3] and 100% in assay [4].

`Cc1cc(C)c(C2C(=O)CC(CCNC(=O)c3ccc(C#N)cn3)C2=O)c(C)c1` (stereo not drawn) [Compound A57]: the pest or weed control at 250 g/ha in assay [1], in assay [2], in assay [3] and in assay [4] was 100% throughout.

For the molecule `CC#Cc1ccc(C(=O)NCCC2CC(=O)C(c3c(C)cc(C)cc3C)C2=O)nc1` (stereo not drawn) [Compound A192], the pest or weed control at 250 g/ha came to 100% in assay [1], 90% in assay [2], 100% in assay [3] and 80% in assay [4].

With `Cc1cc(C)c(C2C(=O)CC(CCNC(=O)c3ccc4ccccc4n3)C2=O)c(C)c1` (stereo not drawn) [Compound A27], the pest or weed control at 250 g/ha was determined as 100% in assay [1], 90% in assay [2], 70% in assay [3] and 80% in assay [4].

With `Cc1cc(C)c(C2C(=O)CC(CCNC(=O)c3cccc(Br)n3)C2=O)c(C)c1` (stereo not drawn) [Compound A48], the pest or weed control at 250 g/ha in assay [1] is 100%; in assay [2], 90%; in assay [3], 100%; in assay [4] it was 100%.

With `Cc1cc(C)c(C2C(=O)CC(CCNC(=O)c3ccc(F)nc3F)C2=O)c(C)c1` (stereo not drawn) [Compound A166], the pest or weed control at 250 g/ha in assay [1] was 60%; in assay [2], 90%; in assay [3], 90%; in assay [4], 80%.

On to `Cc1cc(-n2cc(Cl)cn2)cc(C)c1C1=C(OC(=O)c2ccc(F)cc2)CC(CCNC(=O)c2ccccn2)C1=O` (stereo not drawn) [Compound P14], for which the pest or weed control at 250 g/ha in assay [1], in assay [2], in assay [3] and in assay [4] was 100% throughout.
